According to patent US5068247A, “2-aminopentanoic acid compounds and their use as immunosuppressants” (priority 1989, dated 1991):
≈ marks a conversion by molar mass, not a printed value.

What was measured:
U937 = test: cytotoxicity to cultured tumor cell line U937; type: cell-based, human
Description: (§1) Cytotoxicity to various human tumor cell lines was examined as follows:
(§2) Cells of human cell lines, K562, MOLT4, U937 and HL60 were respectively suspended to the concentration of 4×10^5 cells/ml in the RPMI1640 culture medium supplemented with 20% FCS. Fifty μl of each suspension was added to each well of a 96-well microtest plate to which 50 μl of the test solution had been added. After culturing the suspension at 37° C. in an atmosphere of 5% carbon dioxide for 72 hours, the absorbancy at 570 nm was measured in the same way as with the colorimetry using MTT in Experiment Example 1, and the percent suppression was calculated by the following formula, which was used as an index of cytotoxicity.

[1] = cytotoxicity to cultured tumor cell line U937; type: cell-based, human; conditions: human, u937 cells; 0.1 μg/ml; read-out: Suppression
Description: as §1, §2

HL60 = test: cytotoxicity to cultured tumor cell line HL60
Description: as §1, §2

[2] = cytotoxicity to cultured tumor cell line HL60; conditions: human, hl60 cells, Suppression
Description: as §1, §2

K562 = test: cytotoxicity to cultured tumor cell line K562
Description: as §1, §2

[3] = cytotoxicity to cultured tumor cell line K562; conditions: human, k562 cells, Suppression
Description: as §1, §2

[4] = cytotoxicity to cultured tumor cell line MOLT4; type: cell-based, human; conditions: human, molt4 cells, read-out: Suppression
Description: as §1, §2

MOLT4 = test: cytotoxicity to cultured tumor cell line MOLT4; type: cell-based, human
Description: as §1, §2

[5] = test system: mouse allogenic MLR (BALB/c mouse spleen cells stimulated with C57BL/6 mouse spleen cells); test: mouse allogenic mixed lymphocyte reaction (MLR), 3H-thymidine uptake; type: cell-based
Description: The immunosuppressive activity of the compounds was assayed on the basis of mouse allogenic mixed lymphocyte reaction (hereinafter sometimes abbreviated as MLR). Mouse allogenic MRL was carried out using a mixed culture of BALB/c mouse (H-2^d) spleen cells as the responder cells and mitomycin C-treated C57BL/6 ([…]) mouse spleen cells as the stimulator cells in equal amounts.
The responder cells were prepared as follows:
The spleen was resected from 5- to 6-week-old BALB/c mice, and single cell suspension of spleen cells was prepared by using the RPMI1640 culture medium (containing 60 μg/ml of kanamycin sulfate, 2 mM of L-glutamine, 10 mM of N-2-hydroxyethylpiperazine-N'-2-ethanesulphonate (HEPES) and 0.1% sodium hydrogencarbonate) to which heat-inactivated fetal calf serum (hereinafter sometimes abbreviated as FCS) had been added to 5%. After hemolytic treatment, the cell suspension was adjusted to a concentration of 10^7 cells/ml with the RPMI1640 culture medium supplemented with 10^-4 M 2-mercapto-ethanol and 20% FCS, and was used as the responder cell suspension.
The stimulator cells were prepared as follows: The spleen was resected from 5- to 6-week-old male C57BL/6 mice, and a single cell suspension of spleen cells was prepared by using the RPMI1640 culture medium. After hemolytic treatment, the cells were treated with 40 μg/ml of mitomycin C at 37° C. for 60 minutes. After washing three times, the cell suspension was adjusted to a concentration of 10^7 cells/ml with the RPMI1640 culture medium supplemented with 10^-4 M 2-mercapto-ethanol and 20% FCS, and was used as the stimulator cell suspension.
The blastogenesis of lymphocytes was assayed using ^3 H-thymidine uptake as an index. That is, after termination of culture, 18.5 KBq/well of ^3 H-thymidine was added thereto and the suspension was cultured for 4 hours. Cells were harvested by a cell-harvester, and the radioactivity incorporated into the cells was determined by a liquid scintillation counter, which was used as an index of blastogenesis of lymphocytes in the mouse allogenic MLR. The suppression of the mouse allogenic MLR was evaluated by calculating the percent suppression by the following formula.
The test substance dissolved in methanol was diluted with the RPMI1640 culture medium and put to use.

CCCCCCC(CCCCCC/C=C/C[C@@H](O)[C@H](O)[C@@](N)(CO)C(=O)O)=NO [Example 4]
Absorbancy (U937; 0.1 μg/ml): 0.765 ± 0.033
Absorbancy (U937; 1 μg/ml): 0.744 ± 0.017
Absorbancy (U937; 10 μg/ml): 0.750 ± 0.048
cytotoxicity at 72 h [1]: 0%
Absorbancy (HL60; 0.1 μg/ml): 1.401 ± 0.028
Absorbancy (HL60; 1 μg/ml): 1.493 ± 0.031
Absorbancy (HL60; 10 μg/ml): 1.368 ± 0.087
cytotoxicity at 72 h ([2]; 0.1 μg/ml): 6%
cytotoxicity at 72 h ([2]; 1 μg/ml): 0%
cytotoxicity at 72 h ([2]; 10 μg/ml): 8.2%
Absorbancy (K562; 0.1 μg/ml): 1.145 ± 0.038
Absorbancy (K562; 1 μg/ml): 1.129 ± 0.021
Absorbancy (K562; 10 μg/ml): 1.148 ± 0.032
cytotoxicity at 72 h ([3]; 0.1 μg/ml): 0%
cytotoxicity at 72 h ([3]; 1 μg/ml): 0.6%
cytotoxicity at 72 h ([3]; 10 μg/ml): 0%
cytotoxicity at 72 h ([4]; 0.1 μg/ml): 11%
cytotoxicity at 72 h ([4]; 1 μg/ml): 10.1%
cytotoxicity at 72 h ([4]; 10 μg/ml): 12.1%
Absorbancy (MOLT4; 0.1 μg/ml): 1.026 ± 0.026
Absorbancy (MOLT4; 1 μg/ml): 1.037 ± 0.027
Absorbancy (MOLT4; 10 μg/ml): 1.014 ± 0.055
3H-thymidine uptake ([5]; 0.0001 μg/ml, Table 1A): 16905 cpm
3H-thymidine uptake ([5]; 0.001 μg/ml, Table 1A): 15970 cpm
3H-thymidine uptake ([5]; 0.01 μg/ml, Table 1A): 15399 cpm
3H-thymidine uptake ([5]; 0.1 μg/ml, Table 1A): 1637 cpm
3H-thymidine uptake ([5]; 1 μg/ml, Table 1A): 1477 cpm
inhibition at 0.0001 µg/mL ([5]; Mus musculus, Lymphocyte, 0.0001 μg/ml, Table 1A, read-out: Suppression): 9.1%
inhibition at 0.001 µg/mL ([5]; Mus musculus, Lymphocyte, 0.001 μg/ml, Table 1A, read-out: Suppression): 14.7%
inhibition at 0.01 µg/mL ([5]; Mus musculus, Lymphocyte, 0.01 μg/ml, Table 1A, read-out: Suppression): 18.1%
inhibition at 0.1 µg/mL ([5]; Mus musculus, Lymphocyte, 0.1 μg/ml, Table 1A, read-out: Suppression): 99.9%
inhibition at 1 µg/mL ([5]; Mus musculus, Lymphocyte, 1 μg/ml, Table 1A, read-out: Suppression): 100%
IC50 ([5]; Mus musculus, Lymphocyte, read-out: 50%-inhibition concentration (IC50) in mouse allogenic MLR): 0.025 µg/mL (≈ 0.06 µM)
